According to PubChem BioAssay AID1996:
≈ marks a conversion by molar mass, not a printed value.

Conditions: buffer; pH 7.4; 200.0 µM

SMILES	solubility kinetic
C=CCn1c(SCC#N)nnc1-c1ccc2ncccc2c1	> 46.1 µg/mL
Cc1ccc(SC(C)C(=O)N2CCC(C(N)=O)CC2)cc1 (stereo unspecified)	30.4 µg/mL (≈ 99.2 µM)
CCOC(=O)c1c(O)c2cccc3c2n(c1=O)CC3	> 38.9 µg/mL
CC1CCN(C(=O)Cn2cc(C(F)(F)F)ccc2=O)c2ccccc2S1 (stereo unspecified)	> 57.4 µg/mL
O=C(Nc1nccs1)C1CC=CCC1 (stereo unspecified)	22.7 µg/mL (≈ 109 µM)
COc1cc2c(cc1OC)CN(C(=O)CSc1ccccc1C)CC2	> 53.6 µg/mL
CC(C)[C@H](NC(=O)c1ccccc1F)C(=O)NC1CCCCC1	> 48.1 µg/mL
CCCOc1ccc(C2=CSC3=NCCN23)cc1[N+](=O)[O-]	> 45.8 µg/mL
COc1nc(-c2ccccc2)c2cc(C)ccc2n1	15.4 µg/mL (≈ 61.5 µM)
O=[N+]([O-])c1ccc(Oc2ccc(Oc3ccc(C(F)(F)F)cn3)cc2)nc1	0.3 µg/mL (≈ 0.795 µM)
Cc1ccccc1NC(=S)Nc1ccccc1	18.8 µg/mL (≈ 77.6 µM)
Cc1ccc(-c2nc3ccccc3[nH]2)cn1	29.5 µg/mL (≈ 141 µM)
CCOCCn1c(=O)c2c(nc3n2CCCN3Cc2ccccc2)n(C)c1=O	> 57.5 µg/mL
COC(=O)c1ccc(NC(=O)C(=O)c2c[nH]c3ccccc23)cc1	< 0.3 µg/mL
O=C(Nc1cccc(C(=O)O)c1)Nc1cccc2ccccc12	> 45.9 µg/mL
COc1cc(/C=C/C(=O)OCC(=O)NC2CCCCCCC2)ccc1O	36.2 µg/mL (≈ 100 µM)
CCOc1cc(C(=O)OCc2cc(=O)n3c(C)csc3n2)ccc1OC	3.1 µg/mL (≈ 8.28 µM)
Cc1cccc(NCc2ccc(N(C)C)cc2)n1	27.8 µg/mL (≈ 115 µM)
COC(OC)c1ccnc(-c2ccc(OC(=O)c3ccccc3)cc2)n1	< 0.4 µg/mL
CN(C)C(=O)C1CC(=O)OC12CCCCC2 (stereo unspecified)	28.2 µg/mL (≈ 125 µM)
CC(C)(C)NC(=O)c1cccnc1Sc1ccccc1	> 43 µg/mL
COc1ccc(CCNC(=O)/C=C/C(=O)O)cc1OC	> 41.9 µg/mL

SMILES	solubility kinetic
Cc1ccc(C2(c3noc(CN(C)CCO)n3)CCCC2)cc1	39.5 µg/mL (≈ 125 µM)
CSc1ncc(Cl)c(C(=O)Nc2cccc(Cl)c2)n1	1.1 µg/mL (≈ 3.5 µM)
Cc1nc2ccccc2c(=O)n1-c1cccc([N+](=O)[O-])c1	36.4 µg/mL (≈ 129 µM)
CCCCNC(=O)N1CCN(C(c2ccccc2)c2ccccc2)CC1	5 µg/mL (≈ 14.2 µM)
COC(=O)c1sccc1NC(=O)CSCCc1ccncc1	49.6 µg/mL (≈ 147 µM)
Cc1cccc(NC(=O)c2ccc3[nH]c(=O)c(=O)[nH]c3c2)n1	17.7 µg/mL (≈ 59.7 µM)
O=c1[nH]c(CN2CCOCC2)nc2scc(-c3ccccc3)c12	23.9 µg/mL (≈ 73 µM)
Cc1noc(C)c1S(=O)(=O)Nc1cccc(C(F)(F)F)c1	> 48 µg/mL
COc1ccc(NS(=O)(=O)c2cc(NC(=O)c3cc(F)c(F)cc3Cl)ccc2N2CCOCC2)cc1	3.7 µg/mL (≈ 6.88 µM)
O=C(Nc1ccc(Cl)c(Cl)c1)N1CCCCCC1	0.9 µg/mL (≈ 3.13 µM)
Cc1ccc(CNc2c(C=O)c(=O)[nH]c3ccccc23)cc1	2.2 µg/mL (≈ 7.53 µM)
COCCCNC(=S)Nc1cccc(SC)c1	> 40.6 µg/mL
O=C(NCc1cccc(F)c1)C1CCC(=O)N(C2CC2)C1 (stereo unspecified)	> 43.6 µg/mL
Cc1ccc(NC(=O)C(C)Sc2nnc3ccccn23)cc1 (stereo unspecified)	> 46.9 µg/mL
CCCC(=O)Nc1ccc(-c2csc(-c3cccnc3)n2)cc1	0.7 µg/mL (≈ 2.16 µM)
Cc1cccc(NC(=S)N(CCc2ccncc2)C(C)C)c1C	32.5 µg/mL (≈ 99.2 µM)
O=C(c1cccc(Cl)c1)N1CCN(c2ncccn2)CC1	> 45.4 µg/mL
COCCCNc1nc(-c2ccc(Cl)cc2)nc2ccccc12	4.3 µg/mL (≈ 13.1 µM)
Cc1cc(NC(=O)C(=O)c2c(C)[nH]c3ccccc23)no1	28.2 µg/mL (≈ 99.5 µM)
CN1C=CC=C/C1=C1/N=C(c2ccccc2)OC1=O	> 37.8 µg/mL
O=C(CCOc1ccc(F)cc1)Nc1nccs1	5.6 µg/mL (≈ 21 µM)
CCSC1=NN2CCS(=O)(=O)N=C2S1	> 37.7 µg/mL

SMILES	solubility kinetic
C#CCOC(=O)Nc1cnccc1C(F)(F)F	> 36.6 µg/mL
O=C(NCCc1ccccc1)c1ccccc1[N+](=O)[O-]	33.6 µg/mL (≈ 124 µM)
N#Cc1c(NCCCO)nc(NCc2ccccc2)c2c1CCN(Cc1ccccc1)C2	7.7 µg/mL (≈ 18 µM)
COC(=O)c1ccc(S(=O)(=O)N2CCCN(Cc3ccc(F)cc3)CC2)n1C	> 61.4 µg/mL
O=C(N/N=C1\CC2CC=CC12)c1ccc(Br)cc1 (stereo unspecified)	> 45.8 µg/mL
COc1ccccc1CCC(=O)NCCCn1ccc2ccccc21	27.2 µg/mL (≈ 80.8 µM)
Cc1ccc(-c2csc3nc(C(C)C)oc(=O)c23)c(C)c1	3.9 µg/mL (≈ 13 µM)
O=C(NC(=S)Nc1ccccc1Br)C1CC1	41.7 µg/mL (≈ 139 µM)
NC(=O)CSc1nc2ccccc2c(=O)n1-c1ccccc1	> 46.7 µg/mL
CC(=O)c1ccc(N2C(=O)CC(N3CCN(S(=O)(=O)c4cc(C)ccc4C)CC3)C2=O)cc1 (stereo unspecified)	56.9 µg/mL (≈ 121 µM)
CCCC(CNC(=O)COC(=O)C1=NNC(=O)CC1)c1ccc(Cl)cc1Cl (stereo unspecified)	> 62.1 µg/mL
COc1ccccc1C(=O)OCC(=O)NC(=O)NC1CCCC1	> 48.1 µg/mL
Cc1cc(C)c(NC(=O)C(C)N2CCCCCC2)c(C)c1.Cl (stereo unspecified)	36.6 µg/mL
COc1ccc(N2CC(C(=O)Nc3cc(C)ccn3)CC2=O)cc1 (stereo unspecified)	> 48.8 µg/mL
Cc1csc(=O)n1CCC(=O)OC(C)C(=O)NCc1ccccc1 (stereo unspecified)	> 52.3 µg/mL
Cc1ccc(S(=O)(=O)N2CCN(C)CC2)cc1	> 38.2 µg/mL
O=C1/C(=C\c2ccncc2)N2CCC1CC2	> 32.1 µg/mL
CC1CN(c2ccc([N+](=O)[O-])cc2Cl)CCN1S(C)(=O)=O (stereo unspecified)	> 50.1 µg/mL
O=C(Nc1ccc(CN2CCOCC2)cc1)c1ccc(Cl)cc1	9.2 µg/mL (≈ 27.8 µM)
Cc1cc(OC(=O)N(C)C)nc(-c2ccc(C)c(Cl)c2)n1	22.5 µg/mL (≈ 73.6 µM)
COc1cccc(CN2CCSCC2)c1OC	24.2 µg/mL (≈ 95.5 µM)
O=C1NC(=Nc2ccccc2Cl)SC1(CO)CO	42.3 µg/mL (≈ 148 µM)

SMILES	solubility kinetic
CCCCN1C(=O)C2(OCCCO2)c2cccc(C)c21	25.1 µg/mL (≈ 91.2 µM)
O=C(Nc1ccc(C2CC2(Cl)Cl)cc1)c1cccc([N+](=O)[O-])c1 (stereo unspecified)	< 0.4 µg/mL
CC(C)CCN1C(=O)c2ccc(C(=O)OCC(=O)N(CC(C)C)C3CCS(=O)(=O)C3)cc2C1=O (stereo unspecified)	46.8 µg/mL (≈ 95 µM)
CCCCCCC(=O)N(O)C1CC(=O)N(c2ccc(F)cc2)C1=O (stereo unspecified)	> 50.5 µg/mL
O=C(Nc1ccc(Br)cc1)C1CCCC1	7 µg/mL (≈ 26.1 µM)
CC(=O)c1ccc(NC(=O)COC(=O)C2C3CC4OC(=O)C2C4C3)cc1 (stereo unspecified)	> 53.6 µg/mL
CC(C)c1ccccc1OCC(=O)N1CCCCCCC1	18.8 µg/mL (≈ 65 µM)
O=C(Cc1cccs1)NC1CCCC1	> 31.4 µg/mL
CCOC(=O)CCCCNC(=O)Nc1ccccc1	> 39.6 µg/mL
COc1ccccc1CCNC(=O)Cn1c(=O)oc2ccccc21	> 49 µg/mL
CC(=O)c1c(C)nc(Nc2nc3ccccc3s2)nc1C	0.2 µg/mL (≈ 0.67 µM)
Cc1ccc(NC(=O)CN2C(=O)S/C(=C/c3ccncc3)C2=O)cc1	2.2 µg/mL (≈ 6.23 µM)
N#Cc1ccc(NC(=O)CN2C(=O)NC3(CCCC3)C2=O)cc1Cl	46.1 µg/mL (≈ 133 µM)
O=C(N/N=C/c1ccccc1C(F)(F)F)c1ccc(O)cc1	> 46.2 µg/mL
COc1ccc(Cn2c(=O)oc3ccccc32)cc1F	1.1 µg/mL (≈ 4.03 µM)
COCC(=O)OCC(=O)Nc1ccccc1-c1ccccc1	> 44.9 µg/mL
O=C(COc1ccccc1)NCC(=O)Nc1ccncc1	> 42.8 µg/mL
O=S1(=O)CCN(Cc2ccccc2C(F)(F)F)CC1	> 44 µg/mL
COc1ccc(C(=O)NC(=S)N2CCOCC2)cc1OC	> 46.6 µg/mL
NS(=O)(=O)c1ccc(NC(=O)COc2ccc(Cl)cc2)cc1	2.5 µg/mL (≈ 7.34 µM)
